The target in one assay is T1, IKKε (Homo sapiens, UniProt Q14164).
T1 construct: His-tag; made in house; host or cells: Sf9 insect cells
T1 sequence (Q14164 1-716): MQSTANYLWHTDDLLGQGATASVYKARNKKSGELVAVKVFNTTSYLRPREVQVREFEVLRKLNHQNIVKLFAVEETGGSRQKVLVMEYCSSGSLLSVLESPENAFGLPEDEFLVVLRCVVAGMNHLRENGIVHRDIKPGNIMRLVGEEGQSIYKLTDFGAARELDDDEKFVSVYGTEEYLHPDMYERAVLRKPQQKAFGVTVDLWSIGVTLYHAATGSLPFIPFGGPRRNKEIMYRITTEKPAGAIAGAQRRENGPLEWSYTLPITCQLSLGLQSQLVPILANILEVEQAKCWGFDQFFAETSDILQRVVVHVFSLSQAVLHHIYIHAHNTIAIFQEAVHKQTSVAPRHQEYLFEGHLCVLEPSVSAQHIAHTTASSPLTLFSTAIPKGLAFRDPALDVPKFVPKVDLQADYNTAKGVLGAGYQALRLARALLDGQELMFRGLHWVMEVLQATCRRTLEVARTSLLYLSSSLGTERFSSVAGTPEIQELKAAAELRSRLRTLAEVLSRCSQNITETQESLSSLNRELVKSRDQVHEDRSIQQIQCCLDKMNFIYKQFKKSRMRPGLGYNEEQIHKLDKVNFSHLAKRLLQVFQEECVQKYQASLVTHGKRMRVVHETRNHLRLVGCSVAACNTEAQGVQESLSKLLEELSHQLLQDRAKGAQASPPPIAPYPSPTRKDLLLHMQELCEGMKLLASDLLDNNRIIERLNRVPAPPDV
The assay can be described thus: In-vitro IKKε kinase assay ([γ33]ATP filter-plate). The assay is classed as biochemical. In a few lines: (§1)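 Phosphorylation of casein or myelin basic protein was counted by P-81 filter capture after 30-45 min reactions stopped with phosphoric acid, with counts normalized to DMSO after background subtraction. ATP was twice Km: 60 μM for TBK1 and 32 μM for IKKε, plus [γ33]ATP. Sf9-expressed His-tag enzymes were used at normal/sensitized levels of 0.1/0.02 μg/ml (TBK1) and 0.1/0.015 μg/ml (IKKε).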

The target of another assay is T2, TBK1 (Homo sapiens, UniProt Q9UHD2).
T2 construct: His-tag; made in house; host or cells: Sf9 insect cells
T2 sequence (Q9UHD2 1-729): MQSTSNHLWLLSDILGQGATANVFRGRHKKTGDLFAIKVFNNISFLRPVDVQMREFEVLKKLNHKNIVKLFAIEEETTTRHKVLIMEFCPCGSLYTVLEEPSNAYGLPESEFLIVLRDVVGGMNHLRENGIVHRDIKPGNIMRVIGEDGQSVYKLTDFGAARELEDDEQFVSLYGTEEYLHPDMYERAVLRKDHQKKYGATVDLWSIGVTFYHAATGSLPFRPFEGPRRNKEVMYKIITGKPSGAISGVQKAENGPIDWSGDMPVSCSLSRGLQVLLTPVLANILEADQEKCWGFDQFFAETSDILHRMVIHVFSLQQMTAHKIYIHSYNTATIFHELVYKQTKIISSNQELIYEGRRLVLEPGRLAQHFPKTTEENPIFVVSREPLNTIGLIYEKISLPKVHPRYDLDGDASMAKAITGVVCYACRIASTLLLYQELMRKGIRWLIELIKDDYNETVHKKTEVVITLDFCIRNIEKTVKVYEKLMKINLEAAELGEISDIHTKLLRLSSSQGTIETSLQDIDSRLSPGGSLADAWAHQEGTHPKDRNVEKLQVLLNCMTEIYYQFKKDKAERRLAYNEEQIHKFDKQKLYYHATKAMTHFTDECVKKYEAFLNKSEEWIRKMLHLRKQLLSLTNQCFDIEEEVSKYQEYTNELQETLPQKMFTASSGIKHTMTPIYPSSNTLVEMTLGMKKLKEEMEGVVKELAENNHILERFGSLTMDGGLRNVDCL
Nature of the assay: In-vitro TBK1 kinase assay ([γ33]ATP filter-plate). Format: biochemical. In a few lines:
as §1

For assay [1], the system named is IKKε-mediated phosphorylation of IRF3. The assay can be described thus: In-situ phosphorylation of IRF3 (pIRF3 Ser396 ELISA) in HEK293T cells cotransfected with IRF3 and IKKε. The assay is classed as cell-based. The settings on record: Homo sapiens, HEK-293T. The procedure, abridged: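 For the IRF3 ELISA, HEK293T cells cotransfected with IRF3 and IKKε were replated at 20,000/well and treated 20 h. Phospho-Ser396 IRF3 was measured by ELISA and normalised to DMSO, with viability checked by CellTiter-Glo. For IRF7, cells transfected with IRF7 and TBK1 were treated overnight, and pSer477/Ser479 IRF7 was detected by Western blot.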
In general terms: An ELISA detects its analyte on a solid surface through an enzyme-linked reagent.

[2] abbreviates: text bins, read-out: IC50 for inhibition of the kinase activity of IKKε.
[3] abbreviates: text bins, read-out: IC50 for inhibition of the kinase activity of TBK1.
The mark [4] stands for this setting: HEK293T cells in culture, Table 3, read-out: pIRF3 ELISA IC50.
Setting [5] is: HEK293T cells, 20 hours, text bins, read-out: IC50 for inhibition of the in-situ IKKε-mediated phosphorylation of IRF3.

Read-outs that look alike come from different tables or passages of the source. A value given as a limit tells only on which side of the number the result lay.

IC50 data for 16 compounds are collected here from patent US20150352108A1, “AMINO-PYRIMIDINE COMPOUNDS AS INHIBITORS OF TBK1 AND/OR IKK EPSILON” (Alzheimer's Institute of America, priority 2009, published 2015).

With `N#Cc1cc(-c2ccnc(Nc3ccc(CO)cc3)n2)ccc1OC1CCOCC1` [compound 499, 5-(2-{[4-(hydroxymethyl)phenyl]amino}pyrimidin-4-yl)-2-(tetrahydro-2H-pyran-4-yloxy)benzonitrile], the IC50 – broadly, the concentration needed to halve the response being measured – on IKKε (Table 3, read-out: IKKε IC50) was 5.1 nM; on IKKε (setting [2]), 5 to 50 nM; at TBK1 (Table 3, read-out: TBK1 IC50), 0.5 nM; on TBK1 (setting [3]) it was below 10 nM; in assay [1] (setting [4]), 142 nM; in assay [1] (setting [5]), 100 to 250 nM.
`C[C@H](O)C(=O)N1CCC(Oc2ccc(-c3ccnc(Nc4ccc(C(=O)N5CCN(C)CC5)cc4)n3)cc2C#N)CC1` [Example 35, 2-({1-[(2S)-2-hydroxypropanoyl]piperidin-4-yl}oxy)-5-[2-({4-[(4-methylpierazin-1-yl)carbonyl]phenyl}amino)pyrimidin-4-yl]benzonitrile]: the IC50 on IKKε (setting [2]) was below 5 nM; on TBK1 (setting [3]), below 10 nM; in assay [1] (setting [5]), 250 to 500 nM.
For the compound `CCOC(=O)C(C)NCc1ccc(Nc2nccc(-c3ccc(OC4CCOCC4)c(C#N)c3)n2)cc1` (centres unmarked) [compound 489, ethyl N-[4-({4-[3-cyano-4-(tetrahydro-2H-pyran-4-yloxy)phenyl]pyrimidin-2-yl}amino)benzyl] alaninate], the IC50 on IKKε (setting [2]) was below 5 nM; on TBK1 (setting [3]), below 10 nM; in assay [1] (setting [5]), 100 to 250 nM.
In the case of `CC(C)COc1ccc(-c2ccnc(Nc3ccc(N4CCOCC4)cc3)n2)cc1C#N` [Example 264, 2-(2-Methylpropoxy)-5-(2-{[4-(morpholin-4-yl)phenyl]amino}pyrimidin-4-yl)benzonitrile], the IC50 is 0.6 nM at IKKε (Table 3, read-out: IKKε IC50); below 5 nM at IKKε (setting [2]); 0.2 nM at TBK1 (Table 3, read-out: TBK1 IC50); below 10 nM on TBK1 (setting [3]); 654 nM in assay [1] (setting [4]).
In the case of `CCN(CC)CCOc1cc(Nc2nccc(-c3ccc(OC4CCOCC4)c(C#N)c3)n2)ccc1C` [compound 618, 5-[2-({3-[2-(Diethylamino)ethoxy]-4-methylphenyl}amino)pyrimidin-4-yl]-2-(tetrahydro-2H-pyran-4-yloxy)benzonitrile], the concentration for half-maximal inhibition (IC50) at IKKε (setting [2]) was below 5 nM; on TBK1 (setting [3]) it was below 10 nM; in assay [1] (setting [5]) it was below 100 nM.
For the compound `COc1cc(Nc2nccc(-c3ccc(OC4CCOCC4)c(C#N)c3)n2)ccc1CN1CCN(CCO)CC1` [compound 477, 5-{2-[(4-{[4-(2-Hydroxyethyl)piperazin-1-yl]methyl}-3-methoxyphenyl)amino]pyrimidin-4-yl}-2-(tetrahydro-2H-pyran-4-yloxy)benzonitrile], the IC50 at IKKε (setting [2]) is below 5 nM; at TBK1 (setting [3]) it was 10 to 100 nM; in assay [1] (setting [5]), below 100 nM.
Turning to `CCN(CC)CCOc1cc(Nc2nccc(-c3ccc(OC4CCOCC4)c(C#N)c3)n2)ccc1F` [compound 586, 5-[2-({3-[2-(Diethylamino)ethoxy]-4-fluorophenyl}amino)pyrimidin-4-yl]-2-(tetrahydro-2H-pyran-4-yloxy)benzonitrile], the figures for the IC50 (at IKKε (setting [2]); at TBK1 (setting [3]); in assay [1] (setting [5])) were below 5 nM, below 10 nM and 100 to 250 nM, respectively.
Taken in the same sequence, the figures for `COc1cc(Nc2nccc(-c3ccc(OC4CCOCC4)c(C#N)c3)n2)ccc1C(=O)N1CCN(C)CC1` [compound 354, 5-[2-({3-methoxy-4-[(4-methylpiperazin-1-yl)carbonyl]phenyl}amino)pyrimidin-4-yl]-2-(tetrahydro-2H-pyran-4-yloxy)benzonitrile] were below 5 nM, below 10 nM and below 100 nM.
As to `N#Cc1cc(-c2ccnc(Nc3cccc(CS(=O)(=O)NCCO)c3)n2)ccc1OC1CCOCC1` [compound 619, 1-[3-({4-[3-Cyano-4-(tetrahydro-2H-pyran-4-yloxy)phenyl]pyrimidin-2-yl}amino)phenyl]-N-(2-hydroxyethyl) methanesulfonamide], the half-maximal inhibitory concentration (IC50) was 1.2 nM on IKKε (Table 3, read-out: IKKε IC50); below 5 nM on IKKε (setting [2]); 0.2 nM at TBK1 (Table 3, read-out: TBK1 IC50); below 10 nM at TBK1 (setting [3]); 287 nM in assay [1] (setting [4]); 250 to 500 nM in assay [1] (setting [5]).
Consider `CNS(=O)(=O)Cc1ccc(Nc2nccc(-c3ccc(NC(=O)C(C)C)c(C#N)c3)n2)cc1` [compound 414, N-{2-cyano-4-[2-({4-[(methylsulfamoyl)methyl]phenyl}amino)pyrimidin-4-yl]phenyl}-2-methylpropanamide], for which the figures for the IC50 (at IKKε (setting [2]); on TBK1 (setting [3]); in assay [1] (setting [5])) were 5 to 50 nM, 10 to 100 nM and 100 to 250 nM, respectively.
Taken in the same sequence, the figures for `COc1cc(Nc2nccc(-c3ccc(OC4CCOCC4)c(C#N)c3)n2)ccc1C(=O)N1CCC(N2CCCC2)C1` (centres unmarked) [compound 502, 5-(2-{[4-(1,3′-bipyrrolidin-1′-ylcarbonyl)-3-methoxyphenyl]amino}pyrimidin-4-yl)-2-(tetrahydro-2H-pyran-4-yloxy)benzonitrile] were below 5 nM, below 10 nM and below 100 nM.
`COc1cc(Nc2nccc(-c3ccc(OC4CCOCC4)c(C#N)c3)n2)ccc1C(=O)NC1CCN(C)CC1` [compound 381, 4-({4-[3-cyano-4-(tetrahydro-2H-pyran-4-yloxy)phenyl]pyrimidin-2-yl}amino)-2-methoxy-N-(1-methylpiperidin-4-yl)benzamide]: the IC50 is 0.6 nM at IKKε (Table 3, read-out: IKKε IC50); below 5 nM on IKKε (setting [2]); 0.4 nM at TBK1 (Table 3, read-out: TBK1 IC50); below 10 nM at TBK1 (setting [3]); 349 nM in assay [1] (setting [4]); 250 to 500 nM in assay [1] (setting [5]).
Consider `N#Cc1cc(-c2ccnc(Nc3cccc(OCCCN4CCOCC4)c3)n2)ccc1OC1CCOCC1` [compound 528, 5-[2-({3-[3-(morpholin-4-yl)propoxy]phenyl}amino)pyrimidin-4-yl]-2-(tetrahydro-2H-pyran-4-yloxy)benzonitrile], for which the figures for the half-inhibitory concentration (IC50) (on IKKε (setting [2]); on TBK1 (setting [3]); in assay [1] (setting [5])) were 5 to 50 nM, below 10 nM and 250 to 500 nM, respectively.
Taken in the same sequence, the figures for `N#Cc1cc(-c2ccnc(Nc3ccc(CS(=O)(=O)NCCO)cc3)n2)ccc1OC1CCOCC1` [compound 402, 1-[4-({4-[3-Cyano-4-(tetrahydro-2H-pyran-4-yloxy)phenyl]pyrimidin-2-yl}amino)phenyl]-N-(2-hydroxyethyl) methanesulfonamide] were below 5 nM, below 10 nM and below 100 nM.
With `COc1cc(Nc2nccc(-c3ccc(OC4CCOCC4)c(C#N)c3)n2)ccc1C(=O)N1CC(OC)C1` [compound 484, 5-[2-({3-Methoxy-4-[(3-methoxyazetidin-1-yl)carbonyl]phenyl}amino)pyrimidin-4-yl]-2-(tetrahydro-2H-pyran-4-yloxy)benzonitrile], the IC50 on IKKε (setting [2]) was below 5 nM; at TBK1 (setting [3]), 10 to 100 nM; in assay [1] (setting [5]) it was below 100 nM.
On to `N#Cc1cc(-c2ccnc(Nc3ccc(N4CCOCC4)cc3)n2)ccc1OC1CCN(S(N)(=O)=O)C1` (centres unmarked) [Example 225, 3-[2-cyano-4-(2-{[4-(morpholin-4-yl)phenyl]amino}pyrimidin-4-yl)phenoxy]pyrrolidine-1-sulfonamide], for which the 50% inhibitory concentration (IC50) at IKKε (setting [2]) is below 5 nM; on TBK1 (setting [3]), below 10 nM; in assay [1] (setting [5]), 100 to 250 nM.
